Test [1] addresses T1, mu opioid receptor (MOR) (Homo sapiens, UniProt P35372). Put plainly: PathHunter β-arrestin recruitment assay, PAM mode with EC20 endomorphin-1. The class given is cell-based. To be noted: for EC50: read-out: β-arr. EC50. The procedure, abridged:
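Enzyme fragment complementation read-out: β-gal ED fragment fused to receptor, EA fused to β-arrestin, recruitment restoring β-gal activity detected by chemiluminescence. EC50 and percent maximal response derived for each compound.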
In general terms: Activated receptors often draw arrestin, which recruitment assays turn into a signal.

Test [2] deals with T1, mu opioid receptor (MOR). Put plainly: Hit Hunter cAMP signaling assay (adenylyl cyclase inhibition), PAM mode with EC20 endomorphin-1. The class given is cell-based.
Setting [3] is: maximal response for β-arrestin recruitment.
Setting [4] is: cAMP EC50, adenylyl cyclase inhibition.
Where [5] appears, read: maximal response for adenylyl cyclase inhibition.
[6] abbreviates: adenylyl cyclase inhibition, read-out: cAMP EC50.

A value given as a limit tells only on which side of the number the result lay.

T1 sequence (P35372 whole entry, the tested form may be a part): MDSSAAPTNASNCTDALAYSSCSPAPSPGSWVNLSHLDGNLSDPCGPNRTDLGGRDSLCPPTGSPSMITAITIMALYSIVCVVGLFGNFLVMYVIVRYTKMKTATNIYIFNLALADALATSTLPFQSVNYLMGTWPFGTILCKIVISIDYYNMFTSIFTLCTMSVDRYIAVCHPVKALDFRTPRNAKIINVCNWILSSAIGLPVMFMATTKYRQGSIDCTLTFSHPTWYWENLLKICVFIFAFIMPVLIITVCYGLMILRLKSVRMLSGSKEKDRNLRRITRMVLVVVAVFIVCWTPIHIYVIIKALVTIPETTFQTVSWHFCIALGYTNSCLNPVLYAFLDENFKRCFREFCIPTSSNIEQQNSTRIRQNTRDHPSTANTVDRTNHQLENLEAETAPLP

In the case of `O=S(=O)(c1ccc(Cl)cc1)N1CCCCC1c1cccc(C(F)(F)F)n1` (stereo not drawn) [compound 3], on mu opioid receptor (MOR) [1] (setting [3]), the “β-arr Max. Resp.” value was “F (F represents a maximal response of > 60%)”. The EC50 on mu opioid receptor (MOR) [1] (β-arrestin recruitment) and at mu opioid receptor (MOR) [2] (setting [4]) was < 0.7 µM throughout. In addition, the “cAMP Max. Resp.” value at mu opioid receptor (MOR) [2] (setting [5]) was “F (F represents a maximal response of > 60%)”.
As for `Cc1ncc(F)c(N2CCCCC2c2cccc(C(F)(F)F)c2)n1` (stereo not drawn) [compound 269], the “β-arr Max. Resp.” value at mu opioid receptor (MOR) [1] (setting [3]) was “F (F represents a maximal response of > 60%)”. In addition, the EC50 at mu opioid receptor (MOR) [1] (β-arrestin recruitment) and on mu opioid receptor (MOR) [2] (setting [4]) was > 2.1 µM in each case. Also, the “cAMP Max. Resp.” value on mu opioid receptor (MOR) [2] (setting [5]) is reported as “D (D represents a maximal response of < 40%)”.
`COc1ccc(C2N(S(=O)(=O)c3ccc(Cl)cc3)CCC2(F)C(F)(F)F)cc1Br` (mixture of isomers) [Compound 103]: on mu opioid receptor (MOR) [1] (setting [3]), the “β-arr Max. Resp.” value is listed as “F (F represents a maximal response of > 60%)”. The results for the EC50 on mu opioid receptor (MOR) [1] (β-arrestin recruitment) and on mu opioid receptor (MOR) [2] (setting [6]) were > 2.1 µM and 0.7 to 2.1 µM, respectively. The “cAMP Max. Resp.” value at mu opioid receptor (MOR) [2] (setting [5]) was “D (D represents a maximal response of < 40%)”.
For `Fc1cc(Cl)cc(C2CCCCN2c2nc(Cl)ncc2F)c1` (single isomer, unassigned) [compound 404], at mu opioid receptor (MOR) [1] (setting [3]), the “β-arr Max. Resp.” value is listed as “D (D represents a maximal response of < 40%)”. The EC50 on mu opioid receptor (MOR) [1] (β-arrestin recruitment) and at mu opioid receptor (MOR) [2] (setting [4]) was < 0.7 µM each time. The “cAMP Max. Resp.” value on mu opioid receptor (MOR) [2] (setting [5]) is “D (D represents a maximal response of < 40%)”.
As to `Fc1ccc(Cl)cc1C1CCCCN1c1nc(Cl)ncc1F` (stereo not drawn) [compound 400], at mu opioid receptor (MOR) [1] (setting [3]), the “β-arr Max. Resp.” value is listed as “D (D represents a maximal response of < 40%)”. Further, the EC50 on mu opioid receptor (MOR) [1] (β-arrestin recruitment) and on mu opioid receptor (MOR) [2] (setting [4]) was < 0.7 µM each time. At mu opioid receptor (MOR) [2] (setting [5]), the “cAMP Max. Resp.” value is recorded as “D (D represents a maximal response of < 40%)”.
Take `Cc1nccc(C2CCCCN2c2nc(Cl)ncc2F)n1` (stereo not drawn) [compound 377]: on mu opioid receptor (MOR) [1] (setting [3]), the “β-arr Max. Resp.” value is on record as “D (D represents a maximal response of < 40%)”. Moreover, the EC50 at mu opioid receptor (MOR) [1] (β-arrestin recruitment) and on mu opioid receptor (MOR) [2] (setting [4]) was < 0.7 µM throughout. Moreover, on mu opioid receptor (MOR) [2] (setting [5]), the “cAMP Max. Resp.” value was “D (D represents a maximal response of < 40%)”.
For the compound `Oc1cnc2ccc(C3CCCCN3c3nc(Cl)ncc3F)cc2c1` (stereo not drawn) [compound 393], the “β-arr Max. Resp.” value at mu opioid receptor (MOR) [1] (setting [3]) is listed as “D (D represents a maximal response of < 40%)”. Moreover, the EC50 at mu opioid receptor (MOR) [1] (β-arrestin recruitment) and on mu opioid receptor (MOR) [2] (setting [4]) was < 0.7 µM throughout. In addition, on mu opioid receptor (MOR) [2] (setting [5]), the “cAMP Max. Resp.” value was “D (D represents a maximal response of < 40%)”.
For `N#Cc1cccc(N2CCCCC2c2ccc(F)c(Cl)c2)c1` (stereo not drawn) [compound 218], the “β-arr Max. Resp.” value at mu opioid receptor (MOR) [1] (setting [3]) is “E (E represents a maximal response of 40-60%)”. For the same compound, the EC50 (in general, the midpoint of the concentration-response curve) at mu opioid receptor (MOR) [1] (β-arrestin recruitment) was 0.7 to 2.1 µM; on mu opioid receptor (MOR) [2] (setting [6]), > 2.1 µM. Besides, the “cAMP Max. Resp.” value at mu opioid receptor (MOR) [2] (setting [5]) is listed as “D (D represents a maximal response of < 40%)”.
On to `CC1CC(c2cccc(C(F)(F)F)n2)N(c2nc(Cl)ncc2F)C1` (single isomer, unassigned) [compound 221], for which the “β-arr Max. Resp.” value on mu opioid receptor (MOR) [1] (setting [3]) is on record as “D (D represents a maximal response of < 40%)”. Besides, the EC50 at mu opioid receptor (MOR) [1] (β-arrestin recruitment) and on mu opioid receptor (MOR) [2] (setting [6]) was > 2.1 µM in each case. For the same compound, the “cAMP Max. Resp.” value on mu opioid receptor (MOR) [2] (setting [5]) is given as “D (D represents a maximal response of < 40%)”.
As to `Cc1cnc(Cl)nc1N1CCCCC1c1cccc(F)n1` (stereo not drawn) [compound 267], the “β-arr Max. Resp.” value at mu opioid receptor (MOR) [1] (setting [3]) was “D (D represents a maximal response of < 40%)”. Further, the EC50 on mu opioid receptor (MOR) [1] (β-arrestin recruitment) and at mu opioid receptor (MOR) [2] (setting [4]) was > 2.1 µM throughout. In addition, the “cAMP Max. Resp.” value on mu opioid receptor (MOR) [2] (setting [5]) is reported as “E (E represents a maximal response of 40-60%)”.
Turning to `CC1CCN(S(=O)(=O)c2ccc(Cl)cc2)C1c1ccc(Cl)c(Br)c1` (mixture of isomers) [Compound 99], on mu opioid receptor (MOR) [1] (setting [3]), the “β-arr Max. Resp.” value is listed as “E (E represents a maximal response of 40-60%)”. Moreover, the EC50 at mu opioid receptor (MOR) [1] (β-arrestin recruitment) and at mu opioid receptor (MOR) [2] (setting [6]) was < 0.7 µM each time. The “cAMP Max. Resp.” value on mu opioid receptor (MOR) [2] (setting [5]) is “D (D represents a maximal response of < 40%)”.
Take `O=S(=O)(c1ccc(Cl)cc1)N1CCCC(F)C1c1ccc(F)c(Br)c1` (stereo not drawn) [Compound 29]: the EC50 at mu opioid receptor (MOR) [1] (β-arrestin recruitment) and on mu opioid receptor (MOR) [2] (setting [6]) was > 2.1 µM throughout.
With `Fc1ccc(C2CC(F)CN2c2nc(Cl)ncc2F)cc1Cl` (stereo not drawn) [compound 464], on mu opioid receptor (MOR) [1] (maximal response, β-arrestin recruitment), the “β-arr Max. Resp.” value is on record as “E (E represents a maximal response of 40-60%)”. The EC50 at mu opioid receptor (MOR) [1] (β-arrestin recruitment) and at mu opioid receptor (MOR) [2] (setting [6]) was > 2.1 µM in each case. Further, the “cAMP Max. Resp.” value at mu opioid receptor (MOR) [2] (maximal response, adenylyl cyclase inhibition) is listed as “E (E represents a maximal response of 40-60%)”.
For `O=C1CCN(c2nc(Cl)ncc2F)C(c2cc(F)cc(C(F)(F)F)c2)C1` (stereo not drawn) [compound 238], the “β-arr Max. Resp.” value on mu opioid receptor (MOR) [1] (setting [3]) is given as “E (E represents a maximal response of 40-60%)”. Also, the EC50 on mu opioid receptor (MOR) [1] (β-arrestin recruitment) and at mu opioid receptor (MOR) [2] (setting [4]) was > 2.1 µM in each case. Also, on mu opioid receptor (MOR) [2] (setting [5]), the “cAMP Max. Resp.” value is “D (D represents a maximal response of < 40%)”.

Values taken from patent US11071731B2, “Allosteric modulators of the mu opioid receptor” (Chiromics, LLC, priority 2017, dated 2021).
